Assay results: PMC10041525, “New Dual Inhibitors of Bacterial Topoisomerases with Broad-Spectrum Antibacterial Activity and In Vivo Efficacy against Vancomycin-Intermediate Staphylococcus aureus” (Journal of Medicinal Chemistry, 2023)
Where “and” joins values, the source holds several entries; their conditions need not be identical. Equal entries are not always repeated. Where two headings read alike, the source gives them in different places.

Key:
[1] = test system: S. aureus ATCC 700699 (VISA); format: in vivo, female CD-1 mice
Protocol: The neutropenic mouse thigh infection model study was performed by NeoSome Life Sciences, LLC (Lexington, MA, USA) according to NeoSome Institutional Animal Care and Use Committee (IACUC) policies and guidelines as well as NIH’s Office of Laboratory Animal Welfare (OLAW) standards.
Neutropenic mouse thigh infection experiments were performed on female CD-1 mice (Charles River Laboratories, USA). To induce neutropenia, mice received two doses of cyclophosphamide on days −4 and −1 with 150 and 100 mg/kg delivered intraperitoneally (IP), respectively. The inoculum of the testing strain, S. aureus ATCC 700699-P1 (VISA), was prepared from overnight agar plate cultures. To prepare bacterial inoculums, a portion of the plate was resuspended in sterile saline and adjusted to an OD of 0.12 at 625 nm. Next, the resulted bacterial suspension was further diluted to reach an infecting inoculum of 6.0 × 10^5 cfu per each mouse. Plate counts of the inoculum were also performed in each case to confirm the inoculum concentration, and the actual inoculum size was 7.25 × 10^5 cfu/mouse. Mice were inoculated with 100 μL of the prepared bacterial suspension via an intramuscular injection into the right rear thigh. […] The test agent was then dosed via IV administration, to ensure optimal distribution, at 2, 10, and 18 h post-infection. Beginning at 2 h, post-infection mice were dosed with either test article or positive control antibiotic. Mice receiving test agents were dosed intravenously at 10 mL/kg. Linezolid was delivered as a SC dose to ensure optimized exposure, distribution, and efficacy. Four animals were dosed per group. One group of four mice was euthanized at the initiation of therapy (t = 2 h) and cfus determined. All remaining mice were euthanized at 26 h post-infection. At termination, thighs were aseptically excised, weighed, and homogenized to a uniform consistency in 2 mL of sterile saline. The homogenate was serially diluted and plated on bacterial growth media. The cfus were enumerated after overnight incubation.

[2] = test system: 3 sensitive and 7 MDR A. baumannii clinical isolates; experiment: MIC, Hungarian clinical isolates and controls (384-well); format: cell-based
[3] = test system: Chinese hamster ovary K1 cells; experiment: in vitro micronucleus test; settings: without S9, 1 µM
DNA gyrase from E. coli = biological target: T1, DNA gyrase from E. coli (Escherichia coli, UniProt P0AES6); experiment: supercoiling HTS plate assay; format: biochemical; settings: IC50 [nM] E. coli DNA gyrase
T1 construct: purchased Inspiralis
Protocol: (§1) All compounds were tested for their inhibitory activities against DNA gyrase and topo IV from E. coli in supercoiling and relaxation high-throughput plate assays, respectively. Our new series of inhibitors were then tested against a panel of Gram-positive and Gram-negative bacteria.
(§2) Seven concentrations of the inhibitors were used to determine IC50 values which were then calculated with GraphPad Prism 6.0 software. Three independent measurements were performed to determine IC50 values, and mean values are reported as the final result.

topo IV from E. coli = biological target: T2, topo IV from E. coli (Escherichia coli, UniProt P20083); experiment: relaxation HTS plate assay; format: biochemical; settings: IC50
T2 construct: purchased Inspiralis
T2 sequence (P0AFI2 whole entry): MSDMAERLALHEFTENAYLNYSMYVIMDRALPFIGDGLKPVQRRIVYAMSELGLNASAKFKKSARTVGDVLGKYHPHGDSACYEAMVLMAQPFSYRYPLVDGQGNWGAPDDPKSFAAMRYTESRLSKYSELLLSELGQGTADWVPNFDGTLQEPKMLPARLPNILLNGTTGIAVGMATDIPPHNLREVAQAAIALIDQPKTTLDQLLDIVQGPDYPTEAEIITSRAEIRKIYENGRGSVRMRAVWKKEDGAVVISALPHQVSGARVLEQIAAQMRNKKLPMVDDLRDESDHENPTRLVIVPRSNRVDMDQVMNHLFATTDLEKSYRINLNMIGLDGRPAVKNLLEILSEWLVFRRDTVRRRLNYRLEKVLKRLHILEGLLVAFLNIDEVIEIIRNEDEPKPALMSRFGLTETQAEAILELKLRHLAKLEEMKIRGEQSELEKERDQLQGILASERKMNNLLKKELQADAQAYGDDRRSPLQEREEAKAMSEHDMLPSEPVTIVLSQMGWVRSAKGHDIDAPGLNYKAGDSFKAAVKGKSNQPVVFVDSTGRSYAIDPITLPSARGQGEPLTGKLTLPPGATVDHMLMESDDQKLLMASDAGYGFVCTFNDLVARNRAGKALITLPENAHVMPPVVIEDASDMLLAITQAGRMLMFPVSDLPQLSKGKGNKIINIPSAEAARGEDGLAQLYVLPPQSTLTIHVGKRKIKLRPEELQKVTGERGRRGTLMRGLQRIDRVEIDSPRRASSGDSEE
T2 sequence (P20083 whole entry): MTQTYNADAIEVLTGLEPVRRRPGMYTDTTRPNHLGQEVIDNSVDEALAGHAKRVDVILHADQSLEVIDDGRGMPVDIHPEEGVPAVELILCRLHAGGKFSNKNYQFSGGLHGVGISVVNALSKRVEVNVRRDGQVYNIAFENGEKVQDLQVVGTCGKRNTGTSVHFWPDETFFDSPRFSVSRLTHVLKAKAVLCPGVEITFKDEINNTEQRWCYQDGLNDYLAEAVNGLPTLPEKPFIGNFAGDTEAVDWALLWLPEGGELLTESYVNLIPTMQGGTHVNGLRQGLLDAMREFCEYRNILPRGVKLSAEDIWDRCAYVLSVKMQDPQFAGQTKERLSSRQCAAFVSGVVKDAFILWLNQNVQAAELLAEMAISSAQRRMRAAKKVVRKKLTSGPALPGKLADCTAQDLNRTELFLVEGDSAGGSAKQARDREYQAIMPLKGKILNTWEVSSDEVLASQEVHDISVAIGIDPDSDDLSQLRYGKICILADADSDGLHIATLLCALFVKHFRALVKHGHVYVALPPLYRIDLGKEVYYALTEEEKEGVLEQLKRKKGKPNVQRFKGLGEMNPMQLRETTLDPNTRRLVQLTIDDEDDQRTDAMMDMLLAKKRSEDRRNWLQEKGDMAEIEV
Protocol: as §1, §2

A. baumannii ATCC 17978 = experiment: MIC broth microdilution (CLSI); format: cell-based; settings: Acinetobacter baumannii, ATCC17978
Protocol: (§3) Cation-adjusted Mueller Hinton broth 2 (MHBII) was used for bacterial growth under standard laboratory conditions and for antimicrobial susceptibility tests. MHBII broth was prepared by dissolving 22 g of MHBII powder [containing beef extract (3 g), acid hydrolysate of casein (17.5 g), and starch (1.5 g); Becton Dickinson and Co.] in 1 L of water. To prepare MHBII agar, 14 g of agar (Bacto; Molar Chemicals) was added to 1 L of broth.
(§4) Bacterial strains were inoculated onto MHBII agar plates and grown overnight at 37 °C. Next, three individual colonies from each strain were inoculated into 1 mL of MHBII medium and propagated at 37 °C overnight, with agitation at 250 rpm. For Enterococcus sp., the cells were plated in brain–heart infusion [(BHI) medium] agar plates, and BHI broth was used to determine the MICs. […] Following the dilutions, each well was seeded with 5 × 10^4 bacterial cells (in 100 μL final volume). Each measurement was performed in three parallel replicates, and to avoid possible edge effects in the microwell plates, the outside rows (A, H) were filled with sterile medium. Following the inoculations, the plates were covered with the lids and wrapped in polyethylene plastic bags, to minimize evaporation but to allow O2 transfer. […] After incubation, the OD600 of each well was measured using a microplate reader (Synergy 2; Biotek).

S. aureus ATCC 29213 = experiment: MIC broth microdilution (CLSI); format: cell-based; settings: Staphylococcus aureus, ATCC29213
Protocol: as §3, §4

[4] = test system: Enterococcus faecalis ATCC 29212; experiment: MIC broth microdilution (CLSI); format: cell-based, E. faecalis; settings: Enterococcus faecalis, ATCC29212; read-out: MIC
Protocol: as §3, with “MICs (Tables 1 and S1–S3) were determined with a standard serial broth microdilution technique according to Clinical and Laboratory Standards Institute (CLSI) guidelines.[45] Cation-adjusted” for “Cation-adjusted”
(§5) Bacterial strains were inoculated onto MHBII agar plates and grown overnight at 37 °C. Next, three individual colonies from each strain were inoculated into 1 mL of MHBII medium and propagated at 37 °C overnight, with agitation at 250 rpm. For Enterococcus sp., the cells were plated in brain–heart infusion [(BHI) medium] agar plates, and BHI broth was used to determine the MICs. […] The highest final DMSO concentration in the experiments was 0.64% (in the case of the 64 μg/mL concentration of the inhibitor). Following the dilutions, each well was seeded with 5 × 10^4 bacterial cells (in 100 μL final volume). Each measurement was performed in three parallel replicates, and to avoid possible edge effects in the microwell plates, the outside rows (A, H) were filled with sterile medium. Following the inoculations, the plates were covered with the lids and wrapped in polyethylene plastic bags, to minimize evaporation but to allow O2 transfer. The plates were incubated at 37 °C under continuous shaking at 150 rpm for 18 h. After incubation, the OD600 of each well was measured using a microplate reader (Synergy 2; Biotek). The MICs were defined as the antibiotic concentrations which inhibited the growth of the bacterial cultures; that is, the drug concentration where the average OD600 increment of the three technical replicates was below 1.5-fold the background OD increment.

E. coli ATCC 25922 = experiment: MIC broth microdilution (CLSI); format: cell-based; settings: Escherichia coli, ATCC25922; read-out: MIC
Protocol: as §3, with “MICs (Tables 1 and S1–S3) were determined with a standard serial broth microdilution technique according to Clinical and Laboratory Standards Institute (CLSI) guidelines.[45] Cation-adjusted” for “Cation-adjusted”
as §5

[5] = test system: Enterobacter cloacae spp. cloacae ATCC 13047; experiment: MIC broth microdilution (CLSI); format: cell-based; settings: Enterobacter cloacae, ATCC13047; read-out: MIC
Protocol: as §3, with “MICs (Tables 1 and S1–S3) were determined with a standard serial broth microdilution technique according to Clinical and Laboratory Standards Institute (CLSI) guidelines.[45] Cation-adjusted” for “Cation-adjusted”
as §5

K. pneumoniae ATCC 10031 = experiment: MIC broth microdilution (CLSI); format: cell-based; settings: Klebsiella pneumoniae, ATCC10031; read-out: MIC
Protocol: as §3, with “MICs (Tables 1 and S1–S3) were determined with a standard serial broth microdilution technique according to Clinical and Laboratory Standards Institute (CLSI) guidelines.[45] Cation-adjusted” for “Cation-adjusted”
as §5

P. aeruginosa ATCC 27853 = experiment: MIC broth microdilution (CLSI); format: cell-based; settings: Pseudomonas aeruginosa, ATCC27853; read-out: MIC
Protocol: as §3, with “MICs (Tables 1 and S1–S3) were determined with a standard serial broth microdilution technique according to Clinical and Laboratory Standards Institute (CLSI) guidelines.[45] Cation-adjusted” for “Cation-adjusted”
as §5

[6] = test system: S. aureus (MRSA) ATCC 43300; experiment: MIC broth microdilution (CLSI); format: cell-based; settings: Staphylococcus aureus
Protocol: as §3, with “MICs (Tables 1 and S1–S3) were determined with a standard serial broth microdilution technique according to Clinical and Laboratory Standards Institute (CLSI) guidelines.[45] Cation-adjusted” for “Cation-adjusted”
as §5

How did the “Change in log10CFU/gr of thigh from 2 hour control” value ([1]; 50 mg/kg BID/SC) turn out when `CC(=O)NC[C@H]1CN(c2ccc(N3CCOCC3)c(F)c2)C(=O)O1` [linezolid] was run?
The value was -0.61.

And the “Average log10CFU/gr of thigh” value ([1]; 50 mg/kg BID/SC, 26 h)?
The value was 5.69.

What about the “reduction compared to 2 hour infection controls” value ([1]; 50 mg/kg SC (BID)) of the same compound?
The value was 0.61 log10 cfu.

And the “reduction compared to 26 hour infection controls” value ([1]; 50 mg/kg SC (BID))?
The value was 2.41 log10 cfu.

And the “CFU/ g of thigh, single animals” value ([1]; linezolid group)?
Its value is 7.27E+05 and 7.86E+05 and 5.42E+05 and 1.84E+05.

And the “log CFU, single animals” value ([1]; linezolid group)?
Its value is 5.86 and 5.90 and 5.73 and 5.26.

What does the source list for imipenem/relebactame?
Cumulative % at MIC ([2]; n=10, MIC 0.5 µg/mL): 20%; Cumulative % at MIC ([2]; n=10, MIC 2 µg/mL): 30%; Cumulative % at MIC ([2]; n=10, MIC 64 µg/mL): 70%; Cumulative % at MIC ([2]; n=10, MIC 128 µg/mL): 90%; Cumulative % at MIC ([2]; n=10, MIC 256 µg/mL): 100%

With `CO[C@@]12[C@H](COC(N)=O)C3=C(C(=O)C(C)=C(N)C3=O)N1C[C@@H]1N[C@@H]12` [Mitomycin C] as the compound, how does the No. binucleate cells [3] read?
Its No. binucleate cells is 920.

With `COCCCNc1cc(C(=O)O)cc2sc(NC(=O)c3[nH]c(C)c(Cl)c3Cl)nc12.N` [8c, 2-(3,4-Dichloro-5-methyl-1H-pyrrole-2-carboxamido)-4-((3-methoxypropyl)amino)benzo[d]thiazole-6-carboxylic Acid] as the compound, how does the IC50 (DNA gyrase from E. coli) read?
The IC50 was 15 ± 5 nM.

What about the IC50 (topo IV from E. coli) of the same compound?
The IC50 was 190 ± 6 nM.

And the MIC (A. baumannii ATCC 17978; read-out: MIC)?
Its MIC is 2 µg/mL.

What about the MIC (A. baumannii ATCC 17978; read-out: MIC [µg/mL] (A. baumannii ATCC 17978)) of the same compound?
Its MIC is 2 µg/mL.

And the MIC (S. aureus ATCC 29213; read-out: MIC)?
Its MIC is less than 0.0312 µg/mL.

And the MIC (S. aureus ATCC 29213; read-out: MIC [µg/mL](S. aureus ATCC 29213))?
Its MIC is less than 0.0312 µg/mL.

And the MIC [4]?
Its MIC is greater than 0.0312 µg/mL.

And the MIC (E. coli ATCC 25922)?
The MIC was 8 µg/mL.

And the MIC [5]?
Its MIC is greater than 64 µg/mL.

What about the MIC (K. pneumoniae ATCC 10031) of the same compound?
The MIC was 2 µg/mL.

And the MIC (P. aeruginosa ATCC 27853)?
The MIC was 8 µg/mL.

What about the MIC ([6]; read-out: MIC) of the same compound?
Its MIC is less than 0.0312 µg/mL.

And the MIC ([6]; read-out: MIC [µg/mL](S. aureus MRSA ATCC4330))?
The MIC was less than 0.0312 µg/mL.

Which “Cumulative % at MIC” value ([2]; n=10, MIC 1 µg/mL) does the source give for `NC[C@H]1O[C@H](O[C@H]2[C@H](O)[C@@H](O[C@H]3O[C@H](CO)[C@@H](O)[C@H](N)[C@H]3O)[C@H](N)C[C@@H]2N)[C@H](N)C[C@@H]1O` [Tobramycin, tobramycin] here?
Its value is 10%.

What about the “Cumulative % at MIC” value ([2]; n=10, MIC 2 µg/mL) of the same compound?
Its value is 20%.

What about the “Cumulative % at MIC” value ([2]; n=10, MIC […] µg/mL) of the same compound?
The value was 70%.

And the “Cumulative % at MIC” value ([2]; n=10, MIC 256 µg/mL)?
The value was 100%.

And the “Cumulative % at MIC” value ([2]; n=10, MIC […] µg/mL)?
Its value is 60%.

How did the “Cumulative % at MIC” value [2] turn out when colistin was run?
The value was 50% and 70% and 100%.

And the “MIC inhibiting all strains” value ([2]; all 10 isolates)?
The value was 4 µg/mL.

What does the source list for `C[C@@H](O)[C@H]1C(=O)N2C(C(=O)O)=C(S[C@@H]3CN[C@H](CNS(N)(=O)=O)C3)[C@H](C)[C@H]12` [Doripenem, doripenem]?
Cumulative % at MIC ([2]; n=10, MIC 0.0625 µg/mL): 10%; Cumulative % at MIC ([2]; n=10, MIC 2 µg/mL): 30%; Cumulative % at MIC ([2]; n=10, MIC 128 µg/mL): 60%; Cumulative % at MIC ([2]; n=10, MIC 256 µg/mL): 100%; Cumulative % at MIC ([2]; n=10, MIC […]): 20%

trimethoprim/sulfamethoxazole was tested. Which “Cumulative % at MIC” value ([2]; n=10, MIC […] µg/mL) did it give?
Its value is 20%.

And the “Cumulative % at MIC” value ([2]; n=10, MIC 32 µg/mL)?
The value was 70%.

And the “Cumulative % at MIC” value ([2]; n=10, MIC 64 µg/mL)?
The value was 100%.

How did the “Cumulative % at MIC” value ([2]; n=10, MIC 2 µg/mL) turn out when `NCC[C@H](O)C(=O)N[C@@H]1C[C@H](N)[C@@H](O[C@H]2O[C@H](CN)[C@@H](O)[C@H](O)[C@H]2O)[C@H](O)[C@H]1O[C@H]1O[C@H](CO)[C@@H](O)[C@H](N)[C@H]1O` [Amikacin, amikacin] was run?
Its value is 10%.

And the “Cumulative % at MIC” value ([2]; n=10, MIC 256 µg/mL)?
The value was 100%.
